Laboratory results from ChEMBL document CHEMBL5338769, “Discovery of Norisoboldine Analogue III11 as a Novel and Potent Aryl Hydrocarbon Receptor Agonist for the Treatment of Ulcerative Colitis” (J Med Chem, 2023).
Active and inactive are the calls of the source. The rule behind the calls is not given here.

What was measured:
Mus musculus [1] = assay: Anti-colitis activity against DSS-induced ulcerative colitis C57BL/6 mouse model assessed as decrease in disease activity index score at 20 mg/kg, po administered once a day for 10 days; assay type: functional, organism-based; details: time 10.0 day
[2] = Protein binding in rat plasma at 37.38 ug/ml of total concentration measured after 12 hrs by ultrafiltration based HPLC analysis; assay type: ADME, cell-free; details: at 37.38 µg/mL, read-out: PPB (converted)
[3] = Induction of cell differentiation in C57BL/6 mouse naive regulatory T cells assessed as increase in cell frequency at 1 uM incubated for 72 hrs by flow cytometric analysis (reference value: 24.9%); assay type: functional
[4] = Protein binding in rat plasma at 10.74 ug/ml of total concentration measured after 12 hrs by ultrafiltration based HPLC analysis; assay type: ADME, cell-free; details: at 10.74 µg/mL, read-out: PPB (converted)
Regulatory T cell = assay: Induction of cell differentiation in C57BL/6 mouse naive regulatory T cells at 1 uM incubated for 72 hrs by flow cytometric analysis; assay type: functional, cell-based
[5] = Induction of cell differentiation in C57BL/6 mouse naive regulatory T cells assessed as increase in cell frequency at 0.3 uM incubated for 72 hrs by flow cytometric analysis (reference value: 24.9%); assay type: functional
Mus musculus [6] = assay: Anti-colitis activity against DSS-induced ulcerative colitis C57BL/6 mouse model assessed as increase in Foxp3 mRNA level at 20 mg/kg, po administered once a day for 10 days by qRT-PCR analysis; assay type: functional, organism-based; details: time 10.0 day
[7] = Apparent oral clearance in Sprague-Dawley rat at 30 mg/kg measured upto 1440 min by LC-MS/MS analysis; assay type: ADME, organism-based; details: in vivo, 24 h
Mus musculus [8] = assay: Anti-colitis activity against DSS-induced ulcerative colitis C57BL/6 mouse model assessed as increase in IL-10 mRNA level by measuring fold change at 10 mg/kg, po administered once a day for 10 days by qRT-PCR analysis; assay type: functional; details: time 10 day
[9] = MRT in Sprague-Dawley rat at 30 mg/kg, po measured upto 1440 min by LC-MS/MS analysis; assay type: ADME, organism-based; details: in vivo
[10] = Apparent oral clearance in Sprague-Dawley rat at 3 mg/kg, iv measured upto 1440 min by LC-MS/MS analysis; assay type: ADME, organism-based; details: in vivo, 24 h
Mus musculus [11] = assay: Anti-colitis activity against DSS-induced ulcerative colitis C57BL/6 mouse model assessed as increase in IL-10 mRNA level at 20 mg/kg, po administered once a day for 10 days by qRT-PCR analysis; assay type: functional, organism-based; details: time 10.0 day
[12] = Unbound drug concentration in rat plasma at 21.67 ug/ml of total concentration measured after 12 hrs by ultrafiltration based HPLC analysis; assay type: ADME, cell-free; details: dose 21.67 µg/ml
Mus musculus [13] = assay: Anti-colitis activity in DSS-induced ulcerative colitis C57BL/6 mouse model assessed as CD4+CD25+Foxp3+ Treg cell percentage in spleen at 10 mg/kg, po administered once a day for 10 days by flow cytometric analysis (reference value: 3.3%); assay type: functional; details: time 10 day
Mus musculus [14] = assay: Anti-colitis activity against DSS-induced ulcerative colitis C57BL/6 mouse model assessed as amelioration of epithelial change score by measuring hyperplasia in colon at 10 to 20 mg/kg, po administered once a day for 10 days by H&E staining based histopathological analysis; assay type: functional, organism-based; details: dose 10-20 mg/kg, time 10.0 day
[15] = Induction of cell differentiation in C57BL/6 mouse naive regulatory T cells assessed as increase in cell frequency at 10 uM incubated for 72 hrs by flow cytometric analysis (reference value: 24.9%); assay type: functional
Mus musculus [16] = assay: Anti-colitis activity against DSS-induced ulcerative colitis C57BL/6 mouse model assessed as amelioration of epithelial change score by measuring cryptitis in colon at 10 to 20 mg/kg, po administered once a day for 10 days by H&E staining based histopathological analysis; assay type: functional, organism-based; details: dose 10-20 mg/kg, time 10.0 day
[17] = AUC(0 to infinity) in Sprague-Dawley rat at 30 mg/kg, po measured upto 1440 min by LC-MS/MS analysis; assay type: ADME, organism-based; design: time < 1440 min, dose 30 mg/kg, route po; details: in vivo
[18] = target: T1, Aryl hydrocarbon receptor (Mus musculus, UniProt P30561); assay: Activation of AhR transcription in C57BL/6 mouse naive T cells assessed as increase in CYP1A1 mRNA expression by measuring fold change at 3 uM by qRT-PCR analysis relative to control; assay type: cell-based; details: T-cell, read-out: FC
T1 sequence (P30561 whole entry): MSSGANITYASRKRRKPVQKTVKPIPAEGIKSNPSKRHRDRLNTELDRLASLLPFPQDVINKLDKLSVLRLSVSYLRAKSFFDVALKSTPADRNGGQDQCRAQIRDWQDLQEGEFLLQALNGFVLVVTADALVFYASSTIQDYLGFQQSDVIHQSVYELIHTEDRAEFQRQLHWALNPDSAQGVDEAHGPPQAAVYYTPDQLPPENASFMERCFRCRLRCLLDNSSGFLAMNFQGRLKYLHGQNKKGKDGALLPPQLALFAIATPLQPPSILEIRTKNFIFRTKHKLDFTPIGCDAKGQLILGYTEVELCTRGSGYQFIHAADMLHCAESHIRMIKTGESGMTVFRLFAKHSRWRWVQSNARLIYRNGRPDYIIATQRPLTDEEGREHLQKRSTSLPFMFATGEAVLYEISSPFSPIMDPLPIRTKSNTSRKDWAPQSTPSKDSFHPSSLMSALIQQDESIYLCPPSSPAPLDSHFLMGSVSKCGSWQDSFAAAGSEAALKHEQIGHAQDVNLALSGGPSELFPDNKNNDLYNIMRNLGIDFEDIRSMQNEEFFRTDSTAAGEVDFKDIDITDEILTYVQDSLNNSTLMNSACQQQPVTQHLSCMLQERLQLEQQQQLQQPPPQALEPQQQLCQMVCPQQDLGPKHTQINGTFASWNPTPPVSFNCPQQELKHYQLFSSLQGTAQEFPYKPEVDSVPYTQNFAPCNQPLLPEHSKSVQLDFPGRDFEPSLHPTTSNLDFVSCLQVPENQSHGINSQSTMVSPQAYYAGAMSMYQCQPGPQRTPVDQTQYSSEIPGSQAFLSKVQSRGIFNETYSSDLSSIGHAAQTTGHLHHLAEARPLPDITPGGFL

[19] = Oral bioavailability in Sprague-Dawley rat at 30 mg/kg measured upto 1440 min by LC-MS/MS analysis; assay type: ADME, organism-based; details: in vivo
[20] = Induction of cell differentiation in C57BL/6 mouse naive regulatory T cells assessed as increase in cell frequency at 3 uM incubated for 72 hrs by flow cytometric analysis (reference value: 24.9%); assay type: functional
EL4 = assay: Cytotoxicity against mouse EL4 cells assessed as reduction of cell vaibility at 10 uM incubated for 72 hrs by MTT assay; assay type: functional, cell-based
[21] = Cmax in Sprague-Dawley rat at 3 mg/kg, iv measured at 120 min by LC-MS/MS analysis; assay type: ADME, organism-based; design: time 120 min, dose 3 mg/kg, route iv; details: in vivo
[22] = Tmax in Sprague-Dawley rat at 30 mg/kg, po measured upto 1440 min by LC-MS/MS analysis; assay type: ADME, organism-based; details: in vivo
[23] = target: T1, Aryl hydrocarbon receptor; assay: Induction of AhR nuclear translocation in C57BL/6 mouse naive T cells at 1 to 10 uM incubated for 48 hrs by immunofluorescence based inverted microscopic analysis; details: t cell, dose 1-10 µM

Compound: COc1cc2c3c(c1)-c1ccc(O)cc1CC3NCC2 (stereo not given)
- Activity (Mus musculus [1]): Active
- fraction unbound at 12 h, 37.38 ug/ml [2]: 0.491
- Activity [3]: 29.9%
- fraction unbound at 12 h, 10.74 ug/ml [4]: 0.134
- Activity (Regulatory T cell): Active
- Activity [5]: 26.7%
- Activity (Mus musculus [6]): Active
- CL/F [7]: 0 mg/(ng/ml)/min
- fold change (FC) (Mus musculus [8]): 1.26
- MRT [9]: 7.27 h
- CL/F [10]: 0.01 mg/(ng/ml)/min
- Activity (Mus musculus [11]): Active
- Cp(f) [12]: 3230 ng/mL
- Activity (Mus musculus [13]): 3.2%
- Activity (Mus musculus [14]): Active
- Activity [15]: 41.7%
- Activity (Mus musculus [16]): Active
- AUC(0-inf) [17]: 8520 ng·h/mL
- fold induction at 3 µM [18]: 4.6
- bioavailability [19]: 87.4%
- Activity [20]: 35.4%
- Activity (EL4): inactive
- Cmax [21]: 396 ng/mL
- Tmax [22]: 2 h
- Activity [23]: Active
